For orientation: solubility means the dissolved amount per volume that the medium holds.

Data set [1] concerns hypothermia and ptosis produced by reserpine. The data set is described as follows: Interaction with reserpine. The data set is classed as in vivo, mice. On the procedure:
Batches of 6 mice are given an intraperitoneal injection of reserpine (2.5 mg/kg) 4 hours before the administration of CRL 40,028.

Data set [2] has as its system hypothermia, trembling and peripheral cholinergic symptoms brought about by oxotremorine. The experiment in a line: Interaction with oxotremorine. Format: in vivo, mice. Conditions: for effect towards oxotremorine: in words. On the procedure: Mice (6 per dose) are given an intraperitoneal injection of 0.5 mg/kg of oxotremorine 30 minutes after the administration of CRL 40,028.

Another data set relates to groups of mice. The data set is described as follows: Group toxicity. Conditions: Table IV, graded symbols.
Data set [3] deals with stereotype behaviour induced by amphetamine. The experiment in a line: Interaction with amphetamine. Format: in vivo, rats. The conditions noted are these: for boosting of stereotypies produced by amphetamine-type compounds: in words; for duration of the stereotypies brought about by amphetamine: rat, in vivo. On the procedure: Amphetamine (2 mg/kg, given intraperitoneally) is injected 30 minutes after the administration of CRL 40,028 (6 rats/dose).

A short description of data set [4]: General behaviour / psychopharmacological spectrum (species not stated). Format: in vivo. Conditions: for mydriatic effect: in words.
Data set [5] has as its system mice. The experiment in a line: General behaviour, mice. Format: in vivo. The conditions noted are these: mice.
The test system of the next data set is central nervous system. The data set is described as follows: Pharmacological tests: action on the central nervous system, overall profile. Format: in vivo. The conditions noted are these: for action on the central nervous system: in words. As for the experimental part:
The results of the pharmacological tests which were carried out have been summarised below.

Data set [6] deals with mice. The data set is described as follows: Toxicity, intraperitoneal administration, mice. The conditions noted are these: intraperitoneal administration. The data set is classed as in vivo.
The test system of another data set is spontaneous motility. The experiment in a line: Spontaneous motility (actimetry). Format: in vivo, mice. The conditions noted are these: mice. On the procedure:
CRL 40,028 increases the motor activity of the animals from a dose of 16 mg/kg onwards. As this effect is representative of the activity of CRL 40,028, attempts have been made to obtain its kinetics more precisely. […]

In a further data set the test system is rats. The experiment in a line: General behaviour, rats. Format: in vivo.
In another data set the test system is residual motility. The data set is described as follows: Residual motility. Format: in vivo, mice.
Data set [7] deals with convulsive effects of the electric shock. The data set is described as follows: Electric shock. Format: in vivo, mice. As for the experimental part: (§1) The test is carried out on batches of 20 mice, 30 minutes after the administration of CRL 40,028.
Data set [8] deals with passes which entail pain. The experiment in a line: Four plate test. Format: in vivo, mice. The conditions noted are these: in words. As for the experimental part: as §1
Data set [9] concerns passes which entail pain. The conditions noted are these: mentioned for comparison; cited from earlier work.
The conditions of data set [10]: at doses close to the toxic dose; mentioned for comparison; cited from earlier work.
The mark [11] stands for this setting: at medium doses, very moderate intensity.

Regarding `Cn1c(=O)c2c(ncn2C)n(C)c1=O` [Caffeine, reference compound], in [1] (Table IV, graded symbols), the “Anti-reserpine action (ptosis)” value was determined as 0. In data set [2] (Table IV, graded symbols), the “Anti-oxotremorine action (peripheral)” value was found to be 0 and the “Anti-oxotremorine action (trembling)” value is given as 0. The molecule further yielded a Group toxicity in the data set on groups of mice of 0.

For the molecule `Cl.NC(C[S+]([O-])C(c1ccccc1)c1ccccc1)=NO` (stereo not shown) [CRL 40,048, Benzhydrylsulphinylacetamidoxime hydrochloride], in data set [3], the “boosting of stereotypies produced by amphetamine-type compounds” value is reported as “boosts stereotypies produced by amphetamine-type compounds”. In addition, in data set [2], the effect towards oxotremorine result was “antagonist action on oxotremorine”. Besides, in [4], the mydriatic effect entry is recorded as “absence of a mydriatic effect”. Moreover, the “hyper-reactivity to the touch” value with mice [5] is “hyper-reactivity to the touch”. In addition, in the data set on central nervous system, the “action on the central nervous system” value was “acts only on the central nervous system”. For the same molecule, the solubility in “Solubility in water” was determined as 100 mg/mL.

`O=C(CC[S+]([O-])C(c1ccccc1)c1ccccc1)NO` (stereo not shown) [CRL 40,260, 3-(Benzhydrylsulphinyl)-propionohydroxamic acid]: in the data set on mice [6], the LD-O result is recorded as “greater than 1,024 mg/kg” and the toxicity in words entry is reported as “low toxicity”. In the data set on spontaneous motility, the spontaneous motility entry is “a reduction in the spontaneous motility”. Also, in the data set on mice [5], the hyper-reactivity entry was “a hyper-reactivity” and the “sedation, with hypomotility” value was “a sedation, with hypomotility”. In the data set with rats, the hyper-reactivity entry is given as “a hyper-reactivity” and the “sedation, with hypomotility” value is reported as “a sedation, with hypomotility”.

Consider `O=C(CCC[S+]([O-])C(c1ccccc1)c1ccccc1)NO` (stereo not shown) [CRL 40,278, 4-(Benzhydrylsulphinyl)-butyrohydroxamic acid], for which the LD-O result in the data set with mice [6] is “greater than 1,024 mg/kg”. For the same molecule, the “action on the central nervous system” value in the data set on central nervous system is on record as “acts on the central nervous system”.

For the molecule `Cl.NC(CC[S+]([O-])C(c1ccccc1)c1ccccc1)=NO` (stereo not shown) [CRL 40,261, 3-(Benzhydrylsulphinyl)-propionamidoxime hydrochloride], the LD-O result in the data set on mice [6] is reported as “greater than 256 mg/kg”. Moreover, in the data set on spontaneous motility (2 mg/kg, 8 mg/kg and 32 mg/kg), the spontaneous motility entry is reported as “an increase in the spontaneous motility”. Also, in [3], the “duration of the stereotypies brought about by amphetamine” value was “an increase in the duration of the stereotypies”. In data set [1] (in words), the “hypothermia due to reserpine” value was “an increase in the hypothermia due to reserpine” and the “palpebral ptosis induced by reserpine” value is given as “without alteration of the palpebral ptosis”. Also, the effect towards oxotremorine result in data set [2] is “moderate effect towards oxotremorine”.

`Cl.NC(CCC[S+]([O-])C(c1ccccc1)c1ccccc1)=NO` (stereo not shown) [CRL 40,277, 4-(Benzhydrylsulphinyl)-butyramidoxime hydrochloride]: the LD-O entry with mice [6] was “greater than 512 mg/kg”. In the data set on residual motility (setting [11]), the residual hypermotility result is listed as “inconstant residual hypermotility”. Moreover, the “boosting of the effect of amphetamine” value in [3] (setting [11]) was “boosting of the effect of amphetamine”. In addition, the “hypothermic effects of reserpine” value in data set [1] (at high doses) is “aggravation of the hypothermic effects of reserpine”. Moreover, the “hypothermic effects of oxotremorine” value in [2] (at high doses) is “aggravation of the hypothermic effects”. For the same molecule, the “lethal effects of the electric shock” value in data set [7] (at high doses) is “an aggravation of the lethal effects of the electric shock”. In data set [4] (at high doses), the hypomotility entry is on record as “hypomotility” and the hypothermia entry is “hypothermia”. The hyper-reactivity entry in data set [4] (setting [11]) is on record as “hyper-reactivity”. Besides, in the data set with central nervous system, the “action on the central nervous system” value is “acts on the central nervous system”.

In the case of `Cl.[O-][S+](CCN1CCOCC1)C(c1ccccc1)c1ccccc1` (stereo not shown) [CRL 40,221, N-[2-(Benzhydrylsulphinyl)-ethyl]-morpholine hydrochloride], the LD-O result in the data set with mice [6] is “greater than 512 mg/kg”. The “motor activity in mice accustomed to their chamber” value in the data set on residual motility (mice) is on record as “a resumption of motor activity”. Further, in [3], the “boosting of stereotypies produced by amphetamine-type compounds” value is “a (metabolic) boosting of the stereotypies”. Also, in data set [1] (in words), the anti-reserpine effect entry is reported as “an anti-reserpine effect”. Besides, in data set [2], the effect towards oxotremorine entry is on record as “an anti-oxotremorine effect”. Also, in the data set on passes which entail pain [8], the “effect in the four plate test” value is reported as “a certain effect in the four plate test”. Further, in [7] (in words), the “protection against convulsions produced by electric shock” value was “a protection against convulsions”. For the same molecule, the sedation result in [4] (at doses close to the toxic dose) is recorded as “a sedation at doses close to the toxic dose”. In addition, in data set [4] (at high doses), the hypothermia result is listed as “hypothermia at high doses”. Also, in [4], the mydriatic effect result was “a considerable mydriasis”. For the same molecule, the psychopharmacological spectrum entry in the data set with central nervous system (comparison with tricyclic anti-depressants) was “close to that of tricyclic anti-depressants”.

In the case of `CNCCC=C1c2ccccc2CCc2ccccc21` [nortriptyline], the “effect in the four plate test (comparison drug)” value (“effect … (comparison drug)” below) in the data set with passes which entail pain [9] is on record as “not”. Further, in data set [10], the “sedation (comparison drug)” value is on record as “a sedation at doses close to the toxic dose”.

As to `Cl.[O-][S+](CCN1CCCCC1)C(c1ccccc1)c1ccccc1` (stereo not shown) [CRL 40,222, N-[2-(Benzhydrylsulphinyl)-ethyl]-piperidine hydrochloride], the LD-O entry in the data set with mice [6] is “greater than 128 mg/kg”. The spontaneous motility result in the data set with spontaneous motility (only at a low dose of 1 mg/kg) was “an increase in the spontaneous motility”. Moreover, the residual motility result in the data set on residual motility (mice, 8 mg/kg) was “a stimulation of the residual motility”. Further, in [3], the “duration of the stereotypies brought about by amphetamine” value is recorded as “an increase in the duration of the stereotypies”. In [1] (in words), the anti-reserpine effect result was “absence of an anti-reserpine effect”. The effect towards oxotremorine entry in data set [2] is reported as “a moderate action towards oxotremorine”. Besides, the “action on the central nervous system” value with central nervous system was “acts on the central nervous system”.

On to `CN(C)CCCN1c2ccccc2CCc2ccccc21` [imipramine], for which the “effect … (comparison drug)” value in the data set on passes which entail pain [9] is on record as “a certain effect in the four plate test”.

As for `CN(C)CCC=C1c2ccccc2CCc2ccccc21` [amitriptyline], the “effect … (comparison drug)” value in the data set with passes which entail pain [9] is given as “a certain effect in the four plate test”. Moreover, the “sedation (comparison drug)” value in data set [10] was “not”.

(Values after US4127722A, “Benzhydrylsulphinyl derivatives” (Laboratoire L. Lafon, priority 1975, dated 1978).)
